Where a name gives a salt, the structure may show the parent alone.
Each compound was assayed against T1, G9a (Homo sapiens, UniProt Q96KQ7) (assay: G9a AlphaLISA enzymatic activity assay). Conditions: 0.15 nM G9a, 15 uM S-adenosyl-methionine, 100 nM biotinylated histone 3 peptide (1-21), 1 hour at room temperature; read-out: G9a in (uM) (IC50, concentration that produced 50% inhibition).
T1 sequence (Q96KQ7 1-1210): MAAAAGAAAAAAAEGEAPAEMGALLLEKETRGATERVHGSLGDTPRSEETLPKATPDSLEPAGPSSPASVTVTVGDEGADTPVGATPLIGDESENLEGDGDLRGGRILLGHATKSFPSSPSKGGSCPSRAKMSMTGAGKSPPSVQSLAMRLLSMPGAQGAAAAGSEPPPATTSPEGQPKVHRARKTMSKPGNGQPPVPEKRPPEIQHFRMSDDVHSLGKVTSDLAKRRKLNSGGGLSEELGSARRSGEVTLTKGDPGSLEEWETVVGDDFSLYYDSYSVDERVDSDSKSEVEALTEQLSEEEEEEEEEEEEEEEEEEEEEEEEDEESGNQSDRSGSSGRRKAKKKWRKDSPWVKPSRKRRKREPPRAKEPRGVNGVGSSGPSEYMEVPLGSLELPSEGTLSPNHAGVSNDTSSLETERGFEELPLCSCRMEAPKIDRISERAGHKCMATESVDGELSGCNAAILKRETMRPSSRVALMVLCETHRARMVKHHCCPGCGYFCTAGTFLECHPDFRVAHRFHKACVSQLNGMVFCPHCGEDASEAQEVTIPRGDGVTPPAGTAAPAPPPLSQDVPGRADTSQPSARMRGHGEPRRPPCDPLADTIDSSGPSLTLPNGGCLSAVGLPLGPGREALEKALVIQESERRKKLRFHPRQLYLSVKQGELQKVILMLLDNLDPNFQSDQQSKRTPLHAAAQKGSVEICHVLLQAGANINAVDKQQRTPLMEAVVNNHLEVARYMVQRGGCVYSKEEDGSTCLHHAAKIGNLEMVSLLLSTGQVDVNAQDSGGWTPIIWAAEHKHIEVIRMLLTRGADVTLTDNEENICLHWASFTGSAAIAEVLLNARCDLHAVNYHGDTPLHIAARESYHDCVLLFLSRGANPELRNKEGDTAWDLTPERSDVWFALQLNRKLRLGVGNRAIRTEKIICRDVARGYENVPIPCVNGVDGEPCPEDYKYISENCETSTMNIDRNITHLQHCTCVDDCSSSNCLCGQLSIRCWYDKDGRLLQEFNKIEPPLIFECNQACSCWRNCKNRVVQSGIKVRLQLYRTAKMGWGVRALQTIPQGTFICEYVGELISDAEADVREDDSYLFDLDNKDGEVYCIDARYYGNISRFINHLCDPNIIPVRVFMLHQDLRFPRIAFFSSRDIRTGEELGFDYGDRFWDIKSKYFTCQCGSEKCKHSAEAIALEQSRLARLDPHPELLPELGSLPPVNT
Type: biochemical
In short: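 Human G9a (0.15 nM) methylated 100 nM biotinylated histone H3(1-21) peptide with 15 uM SAM in Tris-HCl pH9 buffer with NaCl, Tween-20 and DTT, 1 h at room temperature. H3K9me2 was detected by AlphaLISA acceptor/streptavidin donor beads (20 ug/mL each); IC50 from percent inhibition across compound dilutions.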

| IC50 [µM] | Compound |
| --- | --- |
| 0.006 | COc1cc2c3c(c(C4CCCC4)nc2cc1OCCCN1CCCC1)CC(C)(C)N3 [Example 113, 1-[3-({4-cyclopentyl-8-methoxy-2,2-dimethyl-1H,2H,3H-pyrrolo[3,2-c]quinolin-7-yl}oxy)propyl]pyrrolidine hydrochloride] |
| 0.5 | COc1cc2c3c(c(C4CCCC4)nc2cc1OCCCN1CCCC1)CCC3 [Example 109, 1-[3-({4-cyclopentyl-8-methoxy-1H,2H,3H-cyclopenta[c]quinolin-7-yl}oxy)propyl]pyrrolidine formate] |
| 0.21 | COc1cc2c3c(c(N[C@@H]4CCOC4)nc2cc1OCCCN1CCCC1)CCC3 [Example 17, 8-methoxy-N-[(3R)-oxolan-3-yl]-7-[3-(pyrrolidin-1-yl)propoxy]-1H,2H,3H-cyclopenta[c]quinolin-4-amine formate] |
| 0.69 | COc1cc2c3c(c(N(C)C(C)C)nc2cc1OCCCN1CCCC1)CCC3 [Example 9, 8-methoxy-N-methyl-N-(propan-2-yl)-7-[3-(pyrrolidin-1-yl)propoxy]-1H,2H,3H-cyclopenta[c]quinolin-4-amine trifluoroacetate] |
| 0.006 | COc1cc2c3c(c(C)nc2cc1OCCCN1CCCC1)CCCN3 [Example 28, 1-[3-({9-methoxy-5-methyl-1H,2H,3H,4H-benzo[h]1,6-naphthyridin-8-yl}oxy)propyl]pyrrolidine trifluoroacetate] |
| 0.015 | CCNc1nc2cc(OCCCN3CCCC3)c(OC)cc2c2c1CC(C)(C)C2 [Example 74, N-ethyl-8-methoxy-2,2-dimethyl-7-[3-(pyrrolidin-1-yl)propoxy]-1H,2H,3H-cyclopenta[c]quinolin-4-amine formate] |
| 0.17 | CCNc1nc2cc(OCCCN3CCCC3)c(OC)cc2c2c1COCC2 [Example 58, N-ethyl-9-methoxy-8-[3-(pyrrolidin-1-yl)propoxy]-1H,2H,4H-pyrano[3,4-c]quinolin-5-amine formate] |
| 1.9 | COc1cc2c3c(c(N(C)C4CCCC4)nc2cc1OCCCN1CCCC1)CCC3 [Example 73, N-cyclopentyl-8-methoxy-N-methyl-7-[3-(pyrrolidin-1-yl)propoxy]-1H,2H,3H-cyclopenta[c]quinolin-4-amine trifluoroacetate] |
| 0.19 | COc1cc2c3c(c(NCCO)nc2cc1OCCCN1CCCC1)CCCC3 [Example 15, 2-({2-methoxy-3-[3-(pyrrolidin-1-yl)propoxy]-7,8,9,10-tetrahydrophenanthridin-6-yl}amino)ethan-1-ol formate] |
| 0.048 | COc1cc2c3c(c(NC(C)C)nc2cc1OCCCN1CCCC1)CC(C)(C)C3 [Example 54, 8-methoxy-2,2-dimethyl-N-(propan-2-yl)-7-[3-(pyrrolidin-1-yl)propoxy]-1H,2H,3H-cyclopenta[c]quinolin-4-amine formate] |
| 0.07 | COc1cc2c3c(c(NCC(C)(C)C)nc2cc1OCCCN1CCCC1)CCC3 [Example 101, N-(2,2-dimethylpropyl)-8-methoxy-7-[3-(pyrrolidin-1-yl)propoxy]-1H,2H,3H-cyclopenta[c]quinolin-4-amine formate] |
| 0.88 | COc1cc2c3c(c(NC(C)C)nc2cc1OCC1CCN(C)C1)CCCC3 (centres unmarked) [Example 51, 2-methoxy-3-[(1-methylpyrrolidin-3-yl)methoxy]-N-(propan-2-yl)-7,8,9,10-tetrahydrophenanthridin-6-amine formate] |
| 0.012 | COc1cc2c3c(cnc2cc1OCCCN1CCCC1)CC(C)(C)N3 [Example 35, 1-[3-({8-methoxy-2,2-dimethyl-1H,2H,3H-pyrrolo[3,2-c]quinolin-7-yl}oxy)propyl]pyrrolidine formate] |
| 0.003 | COc1cc2c3c(c(C4CCCC4)nc2cc1OCCCN1CCCC1)CCCCN3 [Example 79, 1-[3-({6-cyclopentyl-10-methoxy-1H,2H,3H,4H,5H-azepino[3,2-c]quinolin-9-yl}oxy)propyl]pyrrolidine triflate] |
| 1.4 | COc1cc2c3c(c(NC(C)(C)C)nc2cc1OCCCN1CCCC1)CCC3 [Example 94, N-tert-butyl-8-methoxy-7-[3-(pyrrolidin-1-yl)propoxy]-1H,2H,3H-cyclopenta[c]quinolin-4-amine formate] |
| 0.52 | COc1cc2c3c(c(NC4CCOCC4)nc2cc1OCCCN1CCCC1)CCCC3 [Example 12, 2-methoxy-N-(oxan-4-yl)-3-[3-(pyrrolidin-1-yl)propoxy]-7,8,9,10-tetrahydrophenanthridin-6-amine trifluoroacetate] |
| 0.04 | COc1cc2c3c(c(NC4CCCC4)nc2cc1OCCCN1CCCC1)CCC3 [Example 8, N-cyclopentyl-8-methoxy-7-[3-(pyrrolidin-1-yl)propoxy]-1H,2H,3H-cyclopenta[c]quinolin-4-amine trifluoroacetate] |
| 0.27 | COc1cc2c3c(c(NC(C)C)nc2cc1OCC1CCN(C)C1)CCC3 (centres unmarked) [Example 11, 8-methoxy-7-[(1-methylpyrrolidin-3-yl)methoxy]-N-(propan-2-yl)-1H,2H,3H-cyclopenta[c]quinolin-4-amine trifluoroacetate] |
| 0.34 | COc1cc2c(cc1OCCCN1CCCC1)nc(NC(C)C)c1cccnc12 [Example 52, 9-methoxy-N-(propan-2-yl)-8-[3-(pyrrolidin-1-yl)propoxy]benzo[h]1,6-naphthyridin-5-amine formate] |
| 0.39 | CCN(CC)CCCOc1cc2nc(NC(C)C)c3c(c2cc1OC)CCC3 [Example 93, 7-[3-(diethylamino)propoxy]-8-methoxy-N-(propan-2-yl)-1H,2H,3H-cyclopenta[c]quinolin-4-amine formate] |
| 2.3 | COc1cc2c3c(c(NC(C)C)nc2c(F)c1OCCCN1CCCC1)CCC3 [Example 63, 6-fluoro-8-methoxy-N-(propan-2-yl)-7-[3-(pyrrolidin-1-yl)propoxy]-1H,2H,3H-cyclopenta[c]quinolin-4-amine formate] |
| 0.012 | CNc1nc2cc(OCCCN3CCCC3)c(OC)cc2c2c1CCCCN2 [Example 33, 10-methoxy-N-methyl-9-[3-(pyrrolidin-1-yl)propoxy]-1H,2H,3H,4H,5H-azepino[3,2-c]quinolin-6-amine formate] |
| 0.007 | CCCCNc1nc2cc(OCCCN3CCCC3)c(OC)cc2c2c1CC(C)(C)C2 [Example 91, N-butyl-8-methoxy-2,2-dimethyl-7-[3-(pyrrolidin-1-yl)propoxy]-1H,2H,3H-cyclopenta[c]quinolin-4-amine formate] |
| 0.007 | COc1cc2c3c(c(C(C)C)nc2cc1OCCCN1CCCC1)CCC(C)(C)N3 [Example 77, 1-(3-{[9-methoxy-2,2-dimethyl-5-(propan-2-yl)-1H,2H,3H,4H-benzo[h]1,6-naphthyridin-8-yl]oxy}propyl)pyrrolidine formate] |
| 0.12 | COc1cc2c3c(c(NC4(C(=O)O)CC4)nc2cc1OCCCN1CCCC1)CCC3 [Example 62, 1-({8-methoxy-7-[3-(pyrrolidin-1-yl)propoxy]-1H,2H,3H-cyclopenta[c]quinolin-4-yl}amino)cyclopropane-1-carboxylic acid formate] |
| 0.031 | CNc1nc2cc(OCCCN3CCCC3)c(OC)cc2c2c1CCC2 [Example 1, 8-methoxy-N-methyl-7-[3-(pyrrolidin-1-yl)propoxy]-1H,2H,3H-cyclopenta[c]quinolin-4-amine formate] |
| 0.22 | COc1cc2c3c(c(NCCC(F)(F)F)nc2cc1OCCCN1CCCC1)CCC3 [Example 66, 8-methoxy-7-[3-(pyrrolidin-1-yl)propoxy]-N-(3,3,3-trifluoropropyl)-1H,2H,3H-cyclopenta[c]quinolin-4-amine] |
| 0.006 | COc1cc2c3c(c(N)nc2cc1OCCCN1CCCC1)CCC3 [Example 116, 8-methoxy-7-[3-(pyrrolidin-1-yl)propoxy]-1H,2H,3H-cyclopenta[c]quinolin-4-amine formate] |
| 3.1 | COc1cc2nc(NC3CC3)c3c(c2cc1OCCCN1CCCC1)COC3 [Example 47, N-cyclopropyl-7-methoxy-8-[3-(pyrrolidin-1-yl)propoxy]-1H,3H-furo[3,4-c]quinolin-4-amine] |

— patent publication US10829452B2, “Histone methyltransferase inhibitors” (GLOBAL BLOOD THERAPEUTICS, INC., priority 2016, dated 2020)
